According to paper PMC4648260 (Chembiochem : a European journal of chemical biology, 2015):

Key:
RhlR [1] = biological target: T1, RhlR (Pseudomonas aeruginosa, UniProt P54292); type: cell-based; conditions: for EC50: read-out: EC50 (RhlR agonism), E. coli reporter, dose-response 100 nM – 1 mM; for RhlR-agonistic selectivity over LasR and QscR: criterion: at least 2.5-fold more active in RhlR agonism assays than in LasR and QscR agonism assays at 100 μM
RhlR [2] = biological target: T1, RhlR; assay: RhlR agonism, P. aeruginosa GFP reporter strain PAO-JP2/prhlI-LVAgfp; type: cell-based; conditions: compound at 100 μM in the presence of 100 nM OdDHL, 900 μM BHL set to 100% activation, error ±10%, selected data reproduced from ref. [23]
RhlR [3] = biological target: T1, RhlR; type: cell-based; conditions: E. coli reporter; for Inhibition (%) / % RhlR inhibition: compound at 100 μM in the presence of 10 μM BHL, untreated culture set to 100%, error ±10%, selected data reproduced from ref. [23]
LasR = LasR (Pseudomonas aeruginosa, UniProt P25084); assay: LasR antagonism; type: cell-based; conditions: compound at 100 μM against 2 nM OdDHL; untreated culture set to 100%; negative values indicate receptor agonism; error ±10%
QscR = QscR (Pseudomonas aeruginosa, UniProt G3XD77); conditions: compound at 100 μM against 15 nM OdDHL; untreated culture set to 100%; error ±10%
RhlR [4] = biological target: T1, RhlR; assay: RhlR antagonism; type: cell-based

Chain of LasR (P25084 whole entry): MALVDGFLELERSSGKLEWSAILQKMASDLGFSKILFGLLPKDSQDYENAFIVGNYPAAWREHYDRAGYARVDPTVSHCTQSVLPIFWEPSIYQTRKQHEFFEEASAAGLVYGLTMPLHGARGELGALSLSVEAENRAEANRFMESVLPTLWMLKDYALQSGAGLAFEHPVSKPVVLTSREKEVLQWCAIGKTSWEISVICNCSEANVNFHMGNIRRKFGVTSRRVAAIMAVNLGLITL
T1 sequence (P54292 whole entry): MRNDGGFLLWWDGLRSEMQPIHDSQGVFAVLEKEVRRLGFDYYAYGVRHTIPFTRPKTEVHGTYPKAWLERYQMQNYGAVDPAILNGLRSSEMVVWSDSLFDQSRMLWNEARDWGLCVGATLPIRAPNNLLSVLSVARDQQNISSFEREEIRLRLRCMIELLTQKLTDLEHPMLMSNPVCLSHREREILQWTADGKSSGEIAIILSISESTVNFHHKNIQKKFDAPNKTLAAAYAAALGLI

Row | SMILES | EC50 (RhlR [1]) [µM] | RhlR-agonistic selectivity over LasR and QscR (RhlR [1]) | % RhlR activation (RhlR [2]) [%] | Inhibition (%) / % RhlR inhibition (RhlR [3]) [%] | % LasR inhibition (LasR) [%] | % QscR inhibition (QscR) [%] | also measured
1 | CCCC(=O)N[C@H]1CCOC1=O [BHL, N-butanoyl L-homoserine lactone, reference compound] | 11.1 |  |  |  |  |  | 
2 | O=C(Cc1ccc(F)cc1)NC1CCOC1=O (stereo not drawn) [Compound C2] | 9 | displayed selectivity | 28 |  |  |  | 
3 | O=C(Cc1cccc(Cl)c1)NC1CCOC1=O (stereo not drawn) [Compound C6] | 5.5 | displayed selectivity | 26 |  |  |  | 
4 | O=C(Cc1ccccc1)N[C@@H]1CCOC1=O [Compound B4] |  |  |  | 66 | 15 | 37 | 
5 | O=C(Cc1cccc(F)c1)NC1CCOC1=O (stereo not drawn) [Compound C3] |  | displayed selectivity | 28 |  |  |  | 
6 | O=C(Cc1ccccc1F)N[C@H]1CCOC1=O [Compound C4] |  | displayed selectivity | 24 |  |  |  | 
7 | O=C(Cc1ccccc1I)NC1CCOC1=O (stereo not drawn) [Compound C12] |  | displayed selectivity | 11 |  |  |  | 
8 | O=C(Cc1ccc(I)cc1)N[C@H]1CCOC1=O [Compound C10] |  |  |  | 84 | 58 | −79 | Maximum RhlR inhibition (RhlR [3]; antagonism dose curves, highest concentrations tested): near complete RhlR inhibition
9 | O=C(COc1ccc(I)cc1)N[C@H]1CCOC1=O [Compound E22] |  |  |  | 74 | −9 | 18 | fold reduction in potency, P. aeruginosa vs E. coli (RhlR [4]; IC50 67.2 μM in P. aeruginosa vs 17.3 μM in E. coli): ~ 4 fold; % RhlR inhibition (RhlR [4]; P. aeruginosa reporter, compound at 100 μM against 30 μM BHL in the presence of 100 nM OdDHL, cells with 100 nM OdDHL alone set to 100% inhibition, error ±10%): 92%
10 | CSc1cccc(CC(=O)N[C@H]2CCOC2=O)c1 [Compound E7] | 6.6 |  |  |  |  |  | 
11 | O=C(Cc1ccccc1)NC1CCOC1=O (stereo not drawn) [Compound C1] | 14.7 | displayed selectivity | 53 |  |  |  | 
12 | O=C(Cc1ccc2ccccc2c1)NC1CCOC1=O (stereo not drawn) [Compound E12] |  |  |  | 77 | 81 | 60 | 
13 | O=C(CCc1ccccc1)NC1CCOC1=O (stereo not drawn) [Compound E30] | 6.6 |  |  |  |  |  | 
